Experimental data as given in patent publication EP0304156A1, “Cyclohept b indolealkanoic acids” (MERCK FROSST CANADA INC., priority 1987, dated 1989).
Values after ≈ are worked out from the molar mass of the structure shown.

Columns and labels:
Human platelets = assay: Inhibition of induced threshold aggregation of human platelets (agonist U44069); assay type: cell-based; conditions: human platelet rich plasma, aggregating agent U44069; read-out: Inhibition of platelet aggregation (IC50 in mg/ml)
Experimental: Inhibition of Induced Threshold Aggregation of Human Platelets
Human platelet rich plasma (PRP) is prepared from venous blood of male volunteers who have taken no medication for ten days prior to test. Blood is transferred into plastic centrifuge tubes containing 3.8% Trisodium Citrate in 0.9% NaCl (in a ratio of blood to anticoagulant of 9:1), mixed by gentle inversion, and centrifuged at room temperature for ten minutes at 116 g. The supernatant (PRP) is transferred into plastic tubes. Platelet poor plasma (PPP) is obtained by centrifuging the residual blood cells at 4000 g for ten minutes. PRP is left to stand at least one half hour prior to testing.
Platelet Aggregation is measured using a Payton Aggregometer and Recorder. Following calibration of the instrument, a cuvette containing PRP (225 microliters) is incubated for three minutes at 37°C. Drug vehicle (control), or a drug concentration is then added in a volume of 0.5 microliter. After one minute, the aggregating agent (U44069, 9,11-dideoxy-9a,11a-epoxymethano PGF2a) is added to the cuvette in a volume of 25 microliters. Recording is continued until the maximal response is obtained.
The threshold (approximately 20 - 30% of maximum) aggregation concentration of the agonist to be used is first determined in the presence of the drug vehicle (control). Test compounds are then assayed at 10 or 30 micrograms/ml initially, and if active, are further tested in order to determine the concentration range at which 20-80% of the threshold aggregatory response is inhibited. All drugs are dissolved in dimethylsulfoxide.
The height of the aggregation response (measured in divisions of the recorder paper, 1 division = 2.5 mm) in the presence of the drug is recorded, and calculated as percent inhibition of the mean height of the control threshold responses. The IC₅₀ (drug concentration which inhibits 50% of the aggregatory response) is obtained by regression analysis.

[1] = test system: Guinea Pig Tracheal Chain; assay: Estimation of pA2 values in guinea pig tracheal chain (contractile agonist U-44069); design: species or system guinea pigs; conditions: for Kb: Cavia porcellus, 5 min, guinea pig tracheal chain, agonist U-44069
Excerpt: Estimation of pA₂ Values in Guinea Pig Tracheal Chain
Male albino Hartley strain guinea pigs (300-350 gm) were sacrificed by a blow to the head and exsanguinated. The trachea was removed, freed of extraneous tissue and sectioned into rings of 1-2 mm thickness. Five rings were tied together in series, ensuring that the tracheal muscle lay in the same vertical plane, and the cartilage of each ring then separated at a point directly opposite the muscle. The chains were suspended under 1 gm resting tension in modified Krebs solution (NaCl, 6.87; NaHCO₃, 2.1; dextrose, 2.1; KCl, 0.32; CaCl₂, 0.28; MgSO₄, 7H₂O, 0.11; KH₂PO₄, 0.16; gm/L: equilibrated with 5% CO₂ in O₂ for 1 hour) containing indomethacin (1.4 x 10-⁵M) to suppress endogenous protaglandin synthesis, Organ bath temperature was maintained at 37°C and 5% CO₂ in O₂ diffused continously. Isometric tension changes were recorded from a Gould-Statham (UTC 2) force displacement transducer connected to a Beckman Type R Dynograph. For assay purposes initial maximal contractions were elicited with a high concentration of the contractile agonist [U-44069, 9.11-dideoxy-9a,11a-epoxymethano PGF2a] and the tissue sub sequently washed at intervals until tension returned to baseline. Agonist dose response curves were obtained using a cumulative-dose schedule (4-8 doses) and the preparations then washed at regular intervals until baseline tension was recorded. After an appropriate interval (1-1.5 hrs) agonist dose response curves were repeated in the presence of antagonist drug concentrations. […] EC₅₀ values were obtained by regression analysis and used to calculate 'apparent' and Schild Plot pA₂ values by the method of Tallarida and Murray 1981.

[2] = relative to compound 2 (so in the source)

Compound | IC50 (Human platelets) [µg/mL] | Kb [1] [nM] | pA2 lower than that of compound 2 [1, 2] [log units] | potency factor corresponding to the pA2 difference [1, 2]
O=C(O)CC1CCCc2c(n(Cc3ccc(Cl)cc3)c3ccc(F)cc23)C1 (stereo not shown) [Compound 1, 2-Fluoro-5-(p-chlorobenzyl)-5,6,7,8,9,10-hexahydrocyclo hept[b]indole-7-acetic acid] | 0.05 (≈ 0.13 µM) | 3.16 |  | 
O=C(O)CC1CCCCc2c1n(Cc1ccc(Cl)cc1)c1ccc(F)cc21 (stereo not shown) [Compound 4, 2-Fluoro-5-(p-chlorobenzyl)-5,6,7,8,9,10-hexahydrocyclohept[b]indole-6-acetic acid] | 0.015 (≈ 0.0389 µM) | 1.35 |  | 
COc1ccc2c(c1)c1c(n2Cc2ccc(Cl)cc2)CC(C(=O)O)CC1 (stereo not shown) [Compound B, reference compound] | > 30 | 158 |  | 

The next lines start with results.

IC50 (Human platelets) [µg/mL] | Compound | Kb [1] [nM] | pA2 lower than that of compound 2 [1, 2] [log units] | potency factor corresponding to the pA2 difference [1, 2]
4.5 (≈ 11.7 µM) | O=C(O)CC1CCCCc2c1c1cc(F)ccc1n2Cc1ccc(Cl)cc1 (stereo not shown) [Compound 2, 2-Fluoro-5-(p-chlorobenzyl)-5,6,7,8,9,10-hexahydrocyclo hept[b]indole-10-acetic acid] | 42.7 |  | 
7.46 (≈ 20.1 µM) | O=C(O)C1CCCc2c(n(Cc3ccc(Cl)cc3)c3ccc(F)cc23)C1 (stereo not shown) [Compound 3, 2-Fluoro-5-(p-chlorobenzyl)-5,6,7,8,9,10-hexahydrocyclo hept[b]indole-7-carboxylic acid] | 129 |  | 
0.012 (≈ 0.0268 µM) | CS(=O)(=O)c1ccc(Cn2c3c(c4cc(F)cc(F)c42)CCCC(CC(=O)O)C3)cc1 (stereo not shown) [Compound 36, 2,4-Difluoro-5(p-methylsulfonylbenzyl)-5,6,7,8,9,10-hexahydrocyclohept[b]indole-7-acetic acid] | 8.32 |  | 
3.5 (≈ 9.12 µM) | COc1ccc2c(c1)c1c(n2Cc2ccc(Cl)cc2)CC(CC(=O)O)CC1 (stereo not shown) [Compound A, reference compound] | 158 | 1.7 | 15
